Experimental data as given in patent US20230181556A1, “USE OF PSYCHOTROPIC DRUGS FOR THE TREATMENT OF CORONAVIRUS INFECTIONS” (priority 2020, published 2023).
Entries after “also recorded” stand apart in the source; their conditions may differ.

Tests used:
Vero-E6 cells = test: cytotoxicity in mock infected cells; assay type: cell-based; conditions: same experiment (10 μM, 5 μM and 2 μM)
Description: One day prior to the assay, Vero-E6 cells (ATCC® CRL-1586) were plated in a 96-wells flat bottom tissue culture treated plate at a density of 2×10^4 cells/well. On the day of the assay, Vero-E6 cells were pre-treated with the different concentration (i.e. 10 μM, 5 μM and 2 μM) of the indicated drugs diluted in Dulbecco's Modified Eagles Medium (DMEM). After 1 h, the cells were infected with 50 μl of a viral inoculum at 1×10^3 TCID50/ml and incubated for 2 h at 37° C. to allow infection. Then, the virus-drug mixture was removed, cells were rinsed 3 times with PBS and were further cultured with fresh drug-containing medium (DMEM 5% FBS) for 3 days until microscopic examination was performed. Cytotoxicity of the tested drugs were determined in the same experiment in mock infected cells. The half maximal inhibitory concentration (IC50) were analyzed by non-linear regression using a four-parameter dosage-response variable slope model with the GraphPad Prism 8.0.2 software (GraphPad Software, USA).

[1] = under 20 μM concentrations; Hou et al.; cited from earlier work
[2] = test system: viruses as listed per drug; conditions: virus or effect named in the literature; cited from earlier work
phospholipidosis = conditions: cited from earlier work
[3] = target: spike protein-ACE2 interaction (Homo sapiens, UniProt Q9BYF1); conditions: Hou et al., Chemico-Biological Interactions 338 (2021) 109420; cited from earlier work
spike protein-ACE2 interaction, sequence (Q9BYF1 18-805): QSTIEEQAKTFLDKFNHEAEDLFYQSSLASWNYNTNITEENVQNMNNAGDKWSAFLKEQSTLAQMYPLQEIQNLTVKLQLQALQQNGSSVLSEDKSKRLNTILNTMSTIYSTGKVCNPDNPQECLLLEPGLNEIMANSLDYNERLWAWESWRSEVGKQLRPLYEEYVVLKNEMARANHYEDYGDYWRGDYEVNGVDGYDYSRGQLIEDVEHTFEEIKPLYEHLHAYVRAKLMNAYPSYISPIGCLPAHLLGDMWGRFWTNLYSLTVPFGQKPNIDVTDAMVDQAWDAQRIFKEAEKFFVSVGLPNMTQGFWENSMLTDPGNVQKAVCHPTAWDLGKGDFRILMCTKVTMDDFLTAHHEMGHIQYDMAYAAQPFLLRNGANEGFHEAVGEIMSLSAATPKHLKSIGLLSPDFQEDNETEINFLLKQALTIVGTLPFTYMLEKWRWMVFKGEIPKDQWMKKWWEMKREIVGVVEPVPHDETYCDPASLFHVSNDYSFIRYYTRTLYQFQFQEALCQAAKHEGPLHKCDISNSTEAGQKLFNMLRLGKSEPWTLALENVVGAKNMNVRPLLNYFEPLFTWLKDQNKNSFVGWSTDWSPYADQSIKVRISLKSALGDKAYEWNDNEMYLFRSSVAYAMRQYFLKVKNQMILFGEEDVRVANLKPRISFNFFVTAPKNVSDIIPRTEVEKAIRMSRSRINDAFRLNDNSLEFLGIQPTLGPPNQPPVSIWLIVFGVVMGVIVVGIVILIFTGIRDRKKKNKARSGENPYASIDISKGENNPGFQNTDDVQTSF

Row | SMILES | Examples of published in vitro antiviral activity [2] | also measured
1 | CN1CCCC(n2nc(Cc3ccc(Cl)cc3)c3ccccc3c2=O)CC1 (stereo not drawn) [Azelastine] |  | Cytotoxicity (Vero-E6 cells): not found to be cytotoxic
2 | Clc1ccc2c(c1)CCc1cccnc1C2=C1CCNCC1 [Desloratadine] |  | Cytotoxicity (Vero-E6 cells): not found to be cytotoxic; Cytotoxicity [1]: No cytotoxicity was observed
3 | O=C(O)COCCN1CCN(C(c2ccccc2)c2ccc(Cl)cc2)CC1 (stereo not drawn) [Cetirizine] | HRV (Antiviral | 
4 | Clc1ccc(C(OCCN2CCCCC2)c2ccccc2)cc1 (stereo not drawn) [Cloperastine] | SARS-CoV-2 | 
5 | CN[C@H]1CC[C@@H](c2ccc(Cl)c(Cl)c2)c2ccccc21 [Sertraline] | Ebola virus; also recorded: Zika Virus; also recorded: HIV in vivo | PLD, known (phospholipidosis): PLD compound
6 | CN(C)CCOC(C)(c1ccccc1)c1ccc(Cl)cc1 (stereo not drawn) [Chlorphenoxamine] | MERS, SARS | 
7 | CN(C)CCCN1c2ccccc2Sc2ccc(Cl)cc21 [Chlorpromazine] | MERS, SARS | PLD, known (phospholipidosis): PLD agent
8 | CC(CN1c2ccccc2Sc2ccccc21)N(C)C (stereo not drawn) [Promethazine] | Ebola (Sci Transl Med | Cytotoxicity (Vero-E6 cells): not found to be cytotoxic
9 | CCN(CCO)CCCC(C)Nc1ccnc2cc(Cl)ccc12 (stereo not drawn) [Hydroxyl-chloroquine] | SARS-Cov-2 | 
10 | CCOC(=O)N1CCC(=C2c3ccc(Cl)cc3CCc3cccnc32)CC1 [Loratadine] |  | block of spike protein-ACE2 interaction [3]: efficient to block spike protein-ACE2 interaction; Cytotoxicity [1]: No cytotoxicity was observed
11 | O=C(CCCN1CCC(O)(c2ccc(Cl)cc2)CC1)c1ccc(F)cc1 [Haloperidol] | SARS-CoV-2 | 
12 | CCN(CC)CCCC(C)Nc1ccnc2cc(Cl)ccc12 (stereo not drawn) [Chloroquine] | MERS, SARS,; also recorded: Filovirus | PLD, known (phospholipidosis): PLD compound
13 | CCN(CC)CCOc1ccc(C(=C(Cl)c2ccccc2)c2ccccc2)cc1 [Clomifene] | Ebola, HCV | 
14 | CN(C)CCCN1c2ccccc2CCc2ccc(Cl)cc21 [Clomipramine] | MERS, SARS | 
15 | COc1ccc2[nH]cc(CCNC(C)=O)c2c1 [Melatonin] | Possible roles | 
